Assay results from patent publication US20170176440A1, “METHODS AND COMPOSITIONS FOR EVALUATING BREAST CANCER PATIENTS” (THE BOARD OF REGENTS OF THE UNIVERSITY OF TEXAS SYSTEM, priority 2014, published 2017).
Residue numbers refer to the chain shown, from its start. In names and notes the source's numbering stands.

Assays:
[1] = system: pY36 of ERβ in MDA-MB-231 cells; assay: pY36 of endogenous ERβ in MDA-MB-231 cells treated with ERβ agonists; format: cell-based; conditions: agonists 10 nM, 2 hr (FIG. 19C)
[2] = system: p300 recruitment to ERβ target promoters MDA7 and MSMB; assay: p300 ChIP at ERβ target promoters in Hs578T cells; format: cell-based; conditions: WT-ERβ-expressing Hs578T cells; E2 10 nM
Method: For ChIP experiments in the ERβ-inducible Hs578T cells, 100 ng/ml doxcycline was added for 24 hr. […] Cells were cross-linked with 1% formaldehyde for 10 min, treated with glycine at a final concentration of 0.125 M for 5 min at room temperature, and lysed in lysis buffer (5 mM HEPES pH 9.0, 85 mM KCl, 0.5% Triton X-100) for 15 min on ice. Nuclei were resuspended in nuclei lysis buffer (50 mM Tris-HCl pH 8.0, 10 mM EDTA, 1% SDS), and the cross-linked DNA was sonicated for 10 min (with a 30 s on/off cycle) using a Bioruptor sonicator (Diagenode). The supernatant was used for ChIP as previously described (Ding et al., Mol Cell., 2008, (31)347-59).

[3] = two completed and published clinical trials; cited from earlier work
p300 = molecular target: T1, p300 (UniProt Q09472 2-2414, limits assumed); assay: co-IP of Flag-ERβ with endogenous p300 in HEK293T cells
T1 construct: also called endogenous p300
T1 sequence (Q09472 2-2414 limits assumed): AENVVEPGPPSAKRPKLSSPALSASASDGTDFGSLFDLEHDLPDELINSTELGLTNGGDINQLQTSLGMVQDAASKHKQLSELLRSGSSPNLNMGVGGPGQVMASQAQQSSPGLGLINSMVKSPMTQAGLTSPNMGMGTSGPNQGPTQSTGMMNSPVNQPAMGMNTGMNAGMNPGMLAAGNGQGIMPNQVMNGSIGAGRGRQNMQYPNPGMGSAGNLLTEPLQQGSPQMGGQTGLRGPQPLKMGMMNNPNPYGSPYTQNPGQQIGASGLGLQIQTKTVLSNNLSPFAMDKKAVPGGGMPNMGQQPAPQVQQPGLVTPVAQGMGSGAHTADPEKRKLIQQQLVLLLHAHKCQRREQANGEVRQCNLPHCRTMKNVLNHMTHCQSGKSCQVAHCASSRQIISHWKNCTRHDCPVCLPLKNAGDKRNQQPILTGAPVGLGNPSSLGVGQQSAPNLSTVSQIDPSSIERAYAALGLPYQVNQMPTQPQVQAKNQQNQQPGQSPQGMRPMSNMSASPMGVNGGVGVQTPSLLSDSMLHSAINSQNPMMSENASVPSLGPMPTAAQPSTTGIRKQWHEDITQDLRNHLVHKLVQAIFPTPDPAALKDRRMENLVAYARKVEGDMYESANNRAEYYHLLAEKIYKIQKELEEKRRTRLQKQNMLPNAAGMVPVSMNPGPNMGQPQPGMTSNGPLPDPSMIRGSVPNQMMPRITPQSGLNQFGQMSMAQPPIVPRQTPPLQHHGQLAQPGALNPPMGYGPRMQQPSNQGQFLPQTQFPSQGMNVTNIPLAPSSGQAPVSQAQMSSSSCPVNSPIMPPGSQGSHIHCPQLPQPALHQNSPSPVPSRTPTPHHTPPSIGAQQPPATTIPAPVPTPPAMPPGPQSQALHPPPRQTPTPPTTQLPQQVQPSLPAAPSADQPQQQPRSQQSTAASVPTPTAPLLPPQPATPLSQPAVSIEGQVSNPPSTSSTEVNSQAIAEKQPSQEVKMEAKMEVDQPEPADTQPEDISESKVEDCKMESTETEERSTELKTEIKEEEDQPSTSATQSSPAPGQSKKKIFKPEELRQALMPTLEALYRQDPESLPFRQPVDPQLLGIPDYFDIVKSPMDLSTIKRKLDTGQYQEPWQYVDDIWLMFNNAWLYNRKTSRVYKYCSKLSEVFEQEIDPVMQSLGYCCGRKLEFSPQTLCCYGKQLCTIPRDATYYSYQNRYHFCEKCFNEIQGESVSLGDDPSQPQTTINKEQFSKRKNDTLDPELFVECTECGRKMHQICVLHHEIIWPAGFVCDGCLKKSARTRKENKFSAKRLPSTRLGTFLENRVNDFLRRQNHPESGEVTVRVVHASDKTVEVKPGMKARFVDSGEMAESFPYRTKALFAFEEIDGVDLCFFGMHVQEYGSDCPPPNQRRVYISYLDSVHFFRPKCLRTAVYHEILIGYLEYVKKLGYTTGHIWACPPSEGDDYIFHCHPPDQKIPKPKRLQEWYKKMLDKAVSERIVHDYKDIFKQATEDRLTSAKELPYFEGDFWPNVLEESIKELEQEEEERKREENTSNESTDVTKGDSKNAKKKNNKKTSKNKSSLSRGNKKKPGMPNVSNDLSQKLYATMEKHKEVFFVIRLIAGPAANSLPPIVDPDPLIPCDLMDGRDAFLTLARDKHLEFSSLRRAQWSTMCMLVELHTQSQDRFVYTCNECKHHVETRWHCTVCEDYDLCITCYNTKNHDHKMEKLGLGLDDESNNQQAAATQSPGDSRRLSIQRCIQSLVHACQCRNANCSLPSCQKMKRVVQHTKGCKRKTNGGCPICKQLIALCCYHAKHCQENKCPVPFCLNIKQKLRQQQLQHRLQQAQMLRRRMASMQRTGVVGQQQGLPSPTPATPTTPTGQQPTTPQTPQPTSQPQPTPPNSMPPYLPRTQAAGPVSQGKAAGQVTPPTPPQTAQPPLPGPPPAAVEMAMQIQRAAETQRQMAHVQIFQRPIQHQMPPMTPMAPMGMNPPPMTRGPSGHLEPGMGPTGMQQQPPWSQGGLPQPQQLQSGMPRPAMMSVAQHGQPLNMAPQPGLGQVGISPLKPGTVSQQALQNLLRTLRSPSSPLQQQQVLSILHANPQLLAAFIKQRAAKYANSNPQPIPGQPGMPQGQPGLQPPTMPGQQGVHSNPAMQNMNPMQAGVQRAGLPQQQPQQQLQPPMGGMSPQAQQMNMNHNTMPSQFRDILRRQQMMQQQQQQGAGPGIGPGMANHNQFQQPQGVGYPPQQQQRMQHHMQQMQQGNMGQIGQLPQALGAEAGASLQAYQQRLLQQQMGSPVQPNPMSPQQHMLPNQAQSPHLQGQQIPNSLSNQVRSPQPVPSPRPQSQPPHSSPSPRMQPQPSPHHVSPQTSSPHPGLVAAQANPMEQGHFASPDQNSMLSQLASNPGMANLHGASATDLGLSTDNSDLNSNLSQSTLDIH

[4] = molecular target: T2, ERβ pY36-containing peptide SIYIPSS(pY)VDSHHE
T2 chain: SIYIPSSYVDSHHE

Flag-ERβ (WT) = molecular target: T3, Flag-ERβ (WT)
T3 chain: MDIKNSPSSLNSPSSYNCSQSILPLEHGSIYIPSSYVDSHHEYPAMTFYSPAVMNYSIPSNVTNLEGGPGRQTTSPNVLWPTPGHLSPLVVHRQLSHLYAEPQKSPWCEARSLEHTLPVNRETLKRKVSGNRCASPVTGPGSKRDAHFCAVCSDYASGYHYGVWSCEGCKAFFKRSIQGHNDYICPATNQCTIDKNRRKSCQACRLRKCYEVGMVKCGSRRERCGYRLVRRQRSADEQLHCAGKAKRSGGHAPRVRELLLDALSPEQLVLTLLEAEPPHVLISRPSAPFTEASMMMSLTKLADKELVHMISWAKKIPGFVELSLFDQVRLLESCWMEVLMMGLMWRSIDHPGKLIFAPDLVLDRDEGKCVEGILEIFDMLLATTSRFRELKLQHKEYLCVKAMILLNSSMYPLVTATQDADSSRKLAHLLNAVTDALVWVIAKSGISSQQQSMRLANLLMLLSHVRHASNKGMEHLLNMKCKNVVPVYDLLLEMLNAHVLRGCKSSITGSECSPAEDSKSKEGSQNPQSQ

## N#CC(Cc1ccc(O)cc1)c1ccc(O)cc1 (stereo not drawn) [DPN, diarylpropionitrile]
[1]
  ERβ phosphorylation (pY36): enhanced

## C[C@]12CC[C@@H]3c4ccc(O)cc4CC[C@H]3[C@@H]1CC[C@@H]2O [E2, 17-β-estradiol]
[1]
  ERβ phosphorylation (pY36): enhanced
[2]
  recruitment of p300 to the ERβ target promoters: stimulated cyclic recruitment of p300

## Oc1ccc([C@H]2COc3cc(O)ccc3C2)cc1 [S-equol]
[1]
  ERβ phosphorylation (pY36): enhanced
[3]
  safety and drug tolerance: has been demonstrated

B1: Flag-ERβ (WT) (receptor)
chain: T3 chain
modifications: phosphotyrosine at 36 (pY36), as phosphorylated in HEK293T cells
notes: Expressed in HEK293T cells and immunoprecipitated by the Flag tag; also called WT-ERβ; Flag-tagged WT ERβ; not shown: Flag tag
p300
  binding result: binds

B2: Flag-ERβ Y36E (receptor)
chain: T3 chain with Y36E
notes: Expressed in HEK293T cells; also called Y36E-ERβ; Y36E mutant; not shown: Flag tag
p300
  binding result: binds

B3: GST-EYA2 (protein)
chain: MVELVISPSLTVNSDCLDKLKFNRADAAVWTLSDRQGITKSAPLRVSQLFSRSCPRVLPRQPSTAMAAYGQTQYSAGIQQATPYTAYPPPAQAYGIPSYSIKTEDSLNHSPGQSGFLSYGSSFSTSPTGQSPYTYQMHGTTGFYQGGNGLGNAAGFGSVHQDYPSYPGFPQSQYPQYYGSSYNPPYVPASSICPSPLSTSTYVLQEASHNVPNQSSESLAGEYNTHNGPSTPAKEGDTDRPHRASDGKLRGRSKRSSDPSPAGDNEIERVFVWDLDETIIIFHSLLTGTFASRYGKDTTTSVRIGLMMEEMIFNLADTHLFFNDLEDCDQIHVDDVSSDDNGQDLSTYNFSADGFHSSAPGANLCLGSGVHGGVDWMRKLAFRYRRVKEMYNTYKNNVGGLIGTPKRETWLQLRAELEALTDLWLTHSLKALNLINSRPNCVNVLVTTTQLIPALAKVLLYGLGSVFPIENIYSATKTGKESCFERIMQRFGRKAVYVVIGDGVEEEQGAKKHNMPFWRISCHADLEALRHALELEYL
[4]
  in vitro tyrosine phosphatase assay (release of free phosphate, Malachite Green): A pY36-containing ERβ peptide that can be dephosphorylated efficiently by recombinant WT-EYA2
Flag-ERβ (WT)
  in vitro dephosphorylation of immunoprecipitated Flag-ERβ, pY36 immunoblot: recombinant WT, but not mutant EYA2 completely eliminated the pY36 signal of ERβ in vitro
